In patent US20090155209A1, “NOVEL MACROCYCLIC INHIBITORS OF HEPATITIS C VIRUS REPLICATION” (priority 2007, published 2009) one finds IC50 and EC50 data, which are given here for 31 compounds.

For test [1], the target named is T1, NS3-NS4 (Hepatitis C virus genotype 1a, UniProt P27958). The test is described as follows: NS3-NS4 activity, IC50 (Example 37, Table 8). Type of test: biochemical.
Test [2] deals with T1, NS3-NS4. Briefly: cell-based. The note with it: EC50, NS3-NS4 activity.

Structures are written as SMILES.

T1 sequence (P27958 1027-1657): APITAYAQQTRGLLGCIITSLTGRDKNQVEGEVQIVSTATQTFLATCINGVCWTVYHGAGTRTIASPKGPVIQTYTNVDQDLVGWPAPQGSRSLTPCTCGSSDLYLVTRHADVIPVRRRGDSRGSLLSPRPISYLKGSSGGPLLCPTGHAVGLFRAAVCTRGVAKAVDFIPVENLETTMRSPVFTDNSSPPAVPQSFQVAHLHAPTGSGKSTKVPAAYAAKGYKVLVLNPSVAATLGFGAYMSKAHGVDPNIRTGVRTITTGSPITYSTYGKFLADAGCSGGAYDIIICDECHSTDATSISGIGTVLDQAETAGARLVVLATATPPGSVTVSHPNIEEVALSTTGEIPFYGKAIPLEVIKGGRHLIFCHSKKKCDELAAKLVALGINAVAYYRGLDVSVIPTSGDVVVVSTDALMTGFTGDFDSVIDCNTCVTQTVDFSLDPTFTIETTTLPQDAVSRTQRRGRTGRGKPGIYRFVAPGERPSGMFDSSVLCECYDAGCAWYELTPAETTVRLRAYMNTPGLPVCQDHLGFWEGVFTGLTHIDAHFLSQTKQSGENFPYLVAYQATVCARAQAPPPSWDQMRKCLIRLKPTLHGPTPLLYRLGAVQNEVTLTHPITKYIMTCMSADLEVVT
T1 sequence (P27958 1658-1711): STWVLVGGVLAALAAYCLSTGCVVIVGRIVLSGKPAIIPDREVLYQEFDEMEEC

As usually defined, the IC50 is the point on the concentration scale where inhibition reaches its midpoint. Read a low IC50 as greater potency in that assay. One may read the EC50 as the midpoint of the concentration-response curve. A higher EC50 goes with lower potency in that assay. At NS3-NS4 [1], `O=C1N[C@]2(C(=O)NS(=O)(=O)C3CC3)C[C@H]2/C=C\CCCCC[C@H](Nc2nc(-c3ccccc3Cl)cs2)C(=O)N2C[C@H](OC(=O)N3Cc4cccc(F)c4C3)C[C@@H]12` [Compound 209] showed an IC50 of less than 100 nM. The same compound came in with an EC50 at NS3-NS4 [2] of less than 100 nM.

As for `O=C1N[C@]2(C(=O)NS(=O)(=O)C3CC3)C[C@H]2/C=C\CCCCC[C@H](Nc2nc(-c3ccncc3)cs2)C(=O)N2C[C@H](OC(=O)N3Cc4cccc(F)c4C3)C[C@@H]12` [Compound 210], the IC50 at NS3-NS4 [1] is less than 100 nM. Moreover, the EC50 at NS3-NS4 [2] is less than 100 nM.

`N#Cc1ccc(-c2csc(N[C@H]3CCCCC/C=C\[C@@H]4C[C@@]4(C(=O)NS(=O)(=O)C4CC4)NC(=O)[C@@H]4C[C@@H](OC(=O)N5Cc6cccc(F)c6C5)CN4C3=O)n2)cc1` [Compound 211] showed an IC50 against NS3-NS4 [1] of less than 100 nM. The compound also displayed an EC50 on NS3-NS4 [2] of less than 100 nM.

`O=C1N[C@]2(C(=O)NS(=O)(=O)C3CC3)C[C@H]2/C=C\CCCCC[C@H](Nc2nc(-c3ccccn3)cs2)C(=O)N2C[C@H](OC(=O)N3Cc4cccc(F)c4C3)C[C@@H]12` [Compound 212] showed an IC50 against NS3-NS4 [1] of less than 100 nM. This compound also registered an EC50 at NS3-NS4 [2] of less than 100 nM.

`CS(=O)(=O)c1ccc(-c2csc(N[C@H]3CCCCC/C=C\[C@@H]4C[C@@]4(C(=O)NS(=O)(=O)C4CC4)NC(=O)[C@@H]4C[C@@H](OC(=O)N5Cc6cccc(F)c6C5)CN4C3=O)n2)cc1` [Compound 213]: the IC50 against NS3-NS4 [1] was less than 100 nM. This compound came in with an EC50 at NS3-NS4 [2] of less than 100 nM.

Compound `O=C1N[C@]2(C(=O)NS(=O)(=O)C3CC3)C[C@H]2/C=C\CCCCC[C@H](Nc2nc(-c3cccnc3)cs2)C(=O)N2C[C@H](OC(=O)N3Cc4cccc(F)c4C3)C[C@@H]12` [Compound 214] yielded an IC50 at NS3-NS4 [1] of less than 100 nM. The EC50 on NS3-NS4 [2] is less than 100 nM.

In the case of `O=C1N[C@]2(C(=O)NS(=O)(=O)C3CC3)C[C@H]2/C=C\CCCCC[C@H](Nc2nc(-c3cccc(F)c3)cs2)C(=O)N2C[C@H](OC(=O)N3Cc4cccc(F)c4C3)C[C@@H]12` [Compound 215], the 50% inhibitory concentration (IC50) on NS3-NS4 [1] was less than 100 nM. In addition, the EC50 on NS3-NS4 [2] is less than 100 nM.

As for `O=C1N[C@]2(C(=O)NS(=O)(=O)C3CC3)C[C@H]2/C=C\CCCCC[C@H](Nc2nc(-c3ccc(C(F)(F)F)cc3)cs2)C(=O)N2C[C@H](OC(=O)N3Cc4cccc(F)c4C3)C[C@@H]12` [Compound 216], the IC50 against NS3-NS4 [1] was less than 100 nM. Moreover, the EC50 on NS3-NS4 [2] is less than 100 nM.

Turning to `O=C1N[C@]2(C(=O)NS(=O)(=O)C3CC3)C[C@H]2/C=C\CCCCC[C@H](Nc2nc(-c3nc4ccccc4s3)cs2)C(=O)N2C[C@H](OC(=O)N3Cc4cccc(F)c4C3)C[C@@H]12` [Compound 217], on NS3-NS4 [1], the IC50 was less than 100 nM. Further, the EC50 on NS3-NS4 [2] was less than 100 nM.

At NS3-NS4 [1], `O=C1N[C@]2(C(=O)NS(=O)(=O)C3CC3)C[C@H]2/C=C\CCCCC[C@H](Nc2nc(-c3cccc(C(F)(F)F)c3)cs2)C(=O)N2C[C@H](OC(=O)N3Cc4cccc(F)c4C3)C[C@@H]12` [Compound 218] returned an IC50 of less than 100 nM. At NS3-NS4 [2], this compound showed an EC50 of less than 100 nM.

In turn, `O=C1N[C@]2(C(=O)NS(=O)(=O)C3CC3)C[C@H]2/C=C\CCCCC[C@H](Nc2nc(-c3ccc(F)cc3F)cs2)C(=O)N2C[C@H](OC(=O)N3Cc4cccc(F)c4C3)C[C@@H]12` [Compound 219] gave an IC50 on NS3-NS4 [1] of less than 100 nM. This compound registered an EC50 on NS3-NS4 [2] of less than 100 nM.

Take `O=C1N[C@]2(C(=O)NS(=O)(=O)C3CC3)C[C@H]2/C=C\CCCCC[C@H](Nc2nc(-c3ccc(Br)cc3)cs2)C(=O)N2C[C@H](OC(=O)N3Cc4cccc(F)c4C3)C[C@@H]12` [Compound 220]: the IC50 against NS3-NS4 [1] was less than 100 nM. Besides, the EC50 at NS3-NS4 [2] is less than 100 nM.

The compound `O=C1N[C@]2(C(=O)NS(=O)(=O)C3CC3)C[C@H]2/C=C\CCCCC[C@H](Nc2nc(-c3ccc(OC(F)(F)F)cc3)cs2)C(=O)N2C[C@H](OC(=O)N3Cc4cccc(F)c4C3)C[C@@H]12` [Compound 222] registered an IC50 at NS3-NS4 [1] of less than 100 nM. This compound also returned an EC50 on NS3-NS4 [2] of less than 100 nM.

For `O=C1N[C@]2(C(=O)NS(=O)(=O)C3CC3)C[C@H]2/C=C\CCCCC[C@H](Nc2nc(-c3ccc(F)c(F)c3)cs2)C(=O)N2C[C@H](OC(=O)N3Cc4cccc(F)c4C3)C[C@@H]12` [Compound 223], the IC50 against NS3-NS4 [1] was less than 100 nM. In addition, the EC50 at NS3-NS4 [2] is less than 100 nM.

Compound `O=C1NC2(C(=O)NS(=O)(=O)C3CC3)C[C@H]2/C=C\CCCCC[C@H](Nc2nc(-c3ccc(F)cc3)cs2)C(=O)N2C[C@H](OC(=O)N3Cc4cccc(F)c4C3)C[C@@H]12` (some centres unmarked) [Compound 224] showed an IC50 against NS3-NS4 [1] of less than 100 nM. In addition, the EC50 at NS3-NS4 [2] was less than 100 nM.

`O=C1N[C@]2(C(=O)NS(=O)(=O)C3CC3)C[C@H]2/C=C\CCCCC[C@H](Nc2nc(-c3ccc(F)cn3)cs2)C(=O)N2C[C@H](OC(=O)N3Cc4cccc(F)c4C3)C[C@@H]12` [Compound 225] had an IC50 at NS3-NS4 [1] of less than 100 nM. On NS3-NS4 [2], this compound displayed an EC50 of less than 100 nM.

For the compound `Cc1cnc(N[C@H]2CCCCC/C=C\[C@@H]3C[C@@]3(C(=O)NS(=O)(=O)C3CC3)NC(=O)[C@@H]3C[C@@H](OC(=O)N4Cc5cccc(F)c5C4)CN3C2=O)s1` [Compound 226], at NS3-NS4 [1], the IC50 was less than 100 nM. The compound further came in with a concentration giving a half-maximal response (EC50) on NS3-NS4 [2] of less than 100 nM.

In turn, `Cc1csc(N[C@H]2CCCCC/C=C\[C@@H]3C[C@@]3(C(=O)NS(=O)(=O)C3CC3)NC(=O)[C@@H]3C[C@@H](OC(=O)N4Cc5cccc(F)c5C4)CN3C2=O)n1` [Compound 227] displayed an IC50 against NS3-NS4 [1] of less than 100 nM. This compound had an EC50 on NS3-NS4 [2] of less than 100 nM.

On to `O=C1N[C@]2(C(=O)NS(=O)(=O)C3CC3)C[C@H]2/C=C\CCCCC[C@H](Nc2nc(-c3ccc(F)cn3)cs2)C(=O)N2C[C@H](OC(=O)N3Cc4cccc(Cl)c4C3)C[C@@H]12` [Compound 228], for which, on NS3-NS4 [1], the IC50 is less than 100 nM. In addition, the EC50 on NS3-NS4 [2] is less than 100 nM.

At NS3-NS4 [1], `O=C1N[C@]2(C(=O)NS(=O)(=O)C3CC3)C[C@H]2/C=C\CCCCC[C@H](Nc2nc(-c3ccc(F)cn3)cs2)C(=O)N2C[C@H](OC(=O)N3CCc4ccccc4C3)C[C@@H]12` [Compound 229] yielded an IC50 of less than 100 nM. At NS3-NS4 [2], the EC50 is less than 100 nM.

At NS3-NS4 [1], `CCc1cnc(N[C@H]2CCCCC/C=C\[C@@H]3C[C@@]3(C(=O)NS(=O)(=O)C3CC3)NC(=O)[C@@H]3C[C@@H](OC(=O)N4Cc5cccc(F)c5C4)CN3C2=O)s1` [Compound 230] returned an IC50 of less than 100 nM. Moreover, the EC50 at NS3-NS4 [2] is less than 100 nM.

On NS3-NS4 [1], `Cc1nc(N[C@H]2CCCCC/C=C\[C@@H]3C[C@@]3(C(=O)NS(=O)(=O)C3CC3)NC(=O)[C@@H]3C[C@@H](OC(=O)N4Cc5cccc(F)c5C4)CN3C2=O)sc1C` [Compound 231] yielded an IC50 of less than 100 nM. This compound displayed an EC50 at NS3-NS4 [2] of less than 100 nM.

Consider `O=C1N[C@]2(C(=O)NS(=O)(=O)C3CC3)C[C@H]2/C=C\CCCCC[C@H](Nc2nc(-c3ccc(F)cc3)cs2)C(=O)N2C[C@H](OC(=O)N3CCc4ccccc4C3)C[C@@H]12` [Compound 232], for which the 50% inhibitory concentration (IC50) at NS3-NS4 [1] was less than 100 nM. This compound came in with an EC50 on NS3-NS4 [2] of less than 100 nM.

Regarding `CC(=O)O[C@@H]1C[C@H]2C(=O)N[C@]3(C(=O)NS(=O)(=O)C4CC4)C[C@H]3/C=C\CCCCC[C@H](Nc3nc(-c4ccc(F)cc4)cs3)C(=O)N2C1` [Compound 233], the IC50 on NS3-NS4 [1] is less than 100 nM. The same compound showed an EC50 on NS3-NS4 [2] of 100 to 1000 nM.

At NS3-NS4 [1], `CC(=O)O[C@@H]1C[C@H]2C(=O)N[C@]3(C(=O)NS(=O)(=O)C4CC4)C[C@H]3/C=C\CCCCC[C@H](Nc3nc(-c4ccccc4)c(-c4ccccc4)s3)C(=O)N2C1` [Compound 235] had a concentration for half-maximal inhibition (IC50) of less than 100 nM. Also, the EC50 at NS3-NS4 [2] lay in the range of 100 to 1000 nM.

At NS3-NS4 [1], `CC(=O)O[C@@H]1C[C@H]2C(=O)N[C@]3(C(=O)NS(=O)(=O)C4CC4)C[C@H]3/C=C\CCCCC[C@H](Nc3nc(-c4ccc(F)cc4)c(C)s3)C(=O)N2C1` [Compound 239] returned an IC50 of less than 100 nM. Besides, the EC50 on NS3-NS4 [2] fell in the range of 100 to 1000 nM.

Compound `CC(C)(C)O[C@@H]1C[C@H]2C(=O)N[C@]3(C(=O)NS(=O)(=O)C4CC4)C[C@H]3/C=C\CCCCC[C@H](Nc3nc(-c4ccccc4)c(-c4ccccc4)s3)C(=O)N2C1` [Compound 242] came in with an IC50 against NS3-NS4 [1] of less than 100 nM. The EC50 at NS3-NS4 [2] is 1000 to 10000 nM.

At NS3-NS4 [1], `Cc1ccc(S(=O)(=O)NC(=O)[C@@]23C[C@H]2/C=C\CCCCC[C@H](NC(=O)OC(C)(C)C)C(=O)N2C[C@H](OC(=O)N4Cc5cccc(F)c5C4)C[C@H]2C(=O)N3)cc1F` [Compound 301, (2R,6S,13aS,14aR,16aS,Z)-6-(tert-butoxycarbonylamino)-14a-(3-fluoro-4-methylphenylsulfonylcarbamoyl)-5,16-dioxo-1,2,3,5,6,7,8,9,10,11,13a,14,14a,15,16,16a-hexadecahydrocyclopropa[e]pyrrolo[1,2-a][1,4]diazacyclopentadecin-2-yl 4-fluoroisoindoline-2-carboxylate] had an IC50 of less than 100 nM. This compound showed a concentration for a half-maximal effect (EC50) at NS3-NS4 [2] of less than 100 nM.

In the case of `Cc1cc(S(=O)(=O)NC(=O)[C@@]23C[C@H]2/C=C\CCCCC[C@H](NC(=O)OC(C)(C)C)C(=O)N2C[C@H](OC(=O)N4Cc5cccc(F)c5C4)C[C@H]2C(=O)N3)c(C)s1` [Compound 302, (2R,6S,13aS,14aR,16aS,Z)-6-(tert-butoxycarbonylamino)-14a-(2,5-dimethylthiophen-3-ylsulfonylcarbamoyl)-5,16-dioxo-1,2,3,5,6,7,8,9,10,11,13a,14,14a,15,16,16a-hexadecahydrocyclopropa[e]pyrrolo[1,2-a][1,4]diazacyclopentadecin-2-yl 4-fluoroisoindoline-2-carboxylate], the IC50 against NS3-NS4 [1] was less than 100 nM. Besides, the EC50 at NS3-NS4 [2] is less than 100 nM.

On NS3-NS4 [1], `CN(C(=O)N[C@H]1CCCCC/C=C\[C@@H]2C[C@@]2(C(=O)NS(=O)(=O)c2ccccc2)NC(=O)[C@@H]2C[C@@H](OC(=O)N3Cc4cccc(F)c4C3)CN2C1=O)C(C)(C)C` [Compound 303, (2R,6S,13aS,14aR,16aS,Z)-6-(3-tert-butyl-3-methylureido)-5,16-dioxo-14a-(phenylsulfonylcarbamoyl)-1,2,3,5,6,7,8,9,10,11,13a,14,14a,15,16,16a-hexadecahydrocyclopropa[e]pyrrolo[1,2-a][1,4]diazacyclopentadecin-2-yl 4-fluoroisoindoline-2-carboxylate] yielded an IC50 of less than 100 nM. For the same compound, the EC50 at NS3-NS4 [2] is less than 100 nM.

Take `CC(C)(C)OC(=O)N[C@H]1CCCCC/C=C\[C@@H]2C[C@@]2(C(=O)NS(=O)(=O)c2c(F)cccc2F)NC(=O)[C@@H]2C[C@@H](OC(=O)N3Cc4cccc(F)c4C3)CN2C1=O` [Compound 306]: on NS3-NS4 [1], the IC50 is less than 100 nM. The compound further returned an EC50 on NS3-NS4 [2] of 100 to 1000 nM.
